Assays:
[1] = system: feline iris sphincter smooth muscle; test: Isolated cat iris sphincter smooth muscle contraction; conditions: for % Maximal contractile response mean χ ± SEM: reference contraction 10^−7 M PGF2α, n = 4
Experimental: (§1) Smooth muscle tension of isolated tissues was measured isometrically with force displacement transducers (Grass FT-03) and recorded on Grass Polygraphs (Models 7G and 79E). The organ baths contained Krebs solution maintained at 37° C. and gassed with 95% 02/5% CO2 to give a pH of 7.4. The Krebs solution had the following composition (mM): NaCl, 118.0; KCl, 4.7; KH2PO4, 1.2; CaCl2, 1.9; MgSO4, 1.18; NaHCO3, 25.0; glucose, 11.7; indomethacin, 0.001.
Adult domestic cats were sacrificed by intravenous overdose of sodium pentobarbital (Anthony, Arcadia, Calif.). The eyes were enucleated immediately and placed on ice. The iris sphincter muscle was mounted vertically under 50 to 100 mg tension in a jacketed 10 ml organ bath. A 60 min stabilization period was allowed before commencing each experiment. Activity was determined as contractile responses. Compounds were added cumulatively to the organ bath and at least 30 min was allowed for recovery, after complete wash-out, and return to baseline tension. […] No more than two compounds were tested in each tissue.

human FP receptor = human FP receptor (Homo sapiens, UniProt P43088); test: Total inositol phosphate accumulation, HEK-293 cells with recombinant human FP receptor; type: cell-based; design: expressed in transfected cells; conditions: for % maximal total inositol phosphate accumulation mean χ ± SEM: reference 17-phenyl PGF2α 10^−6 M
Experimental: HEK-293 cells were grown in DMEM with 10% fetal bovine serum (FBS), 250 μg ml^−1 G418 (Life Technologies) and 200 μg ml^−1 gentamicin or penicillin/streptomycin. […] For transfection, the cells were grown to 50-60% confluency on 10 cm plates. The plasmid pCEP4 incorporating cDNA inserts for the human FP receptor (20 μg) was added to 500 μl of 250 mM CaCl2. HEPES buffered saline×2 (2×HBSS, 280 mM NaCl, 20 mM HEPES acid, 1.5 mM Na2 HPO4, pH 7.05-7.12) was then added dropwise to a […], with continuous vortexing at room temperature. After 30 min, 9 ml DMEM were added to the mixture. The DNA/DMEM/calcium phosphate mixture was then added to the cells, which had been previously rinsed with 10 ml phosphate buffered saline (PBS). The cells were then incubated for 5 h. at 37° C. in humidified 95% air/5% CO2. The calcium phosphate solution was then removed and the cells were treated with 10% glycerol in DMEM for 2 min. The glycerol solution was then replaced by DMEM with 10% fetal bovine serum (FBS). The cells were incubated overnight and the medium was replaced by DMEM/10% FBS containing 250 μg ml^−1 G418 and penicillin/streptomycin. The following day hygromycin B was added to a final concentration of 200 μg ml^−1.
Receptor-mediated phosphoinositide (PI) hydrolysis was determined by measuring the accumulation of total inositol phosphates (IP) in cells preincubated with ^3H-myoinositol. Stable cell lines of HEK 293 cells expressing human or cat FP receptors were plated in 10 cm dishes (10^6 cells per dish in DMEM with 10% FBS). The following day, the cells were incubated with 18 μCi myo-[2 ^3H] inositol (Amersham; […]) in 6 ml of DMEM with 10% FBS for 24 hours at 37° C. The cells were then rinsed twice with phosphate buffered saline (PBS), incubated for 5 min with 1 ml of trypsin-EDTA, and suspended in 10 ml DMEM containing 25 mM HEPES buffer. Cells were pelleted at 1000 rpm and resuspended in DMEM/25 mM HEPES containing 10 mM LiCl for 10 minutes. Aliquots of 200 μl cell suspension were incubated with 50 μl drug for 30 minutes at 37° C. (duplicate determination), and agonist stimulation was terminated with a 750 μl mixture of chloroform:methanol:4N HCl (100:200:2), followed by addition of 250 μl of chloroform and 0.5 N HCl for extraction of inositol phosphates. A 750 μl volume of the aqueous layer was loaded on columns packed with 0.5 ml of Dowex AG 1-X8 anion-exchange resin (formate form, 100-200 mesh; BioRad) to separate radiolabeled components. The elution procedure consisted of three 3 ml washes with 5 mM inositol, then two elutions with 750 μl of 1.3 M ammonium formate with 0.1 M formic acid. The eluate was mixed with 10 ml Aquasol scintillation fluid (Packard Instrument Co.) and total [^3H] inositol phosphates was determined by a liquid scintillation counter.

dog pupil diameter = test: Dog pupil diameter; type: in vivo; conditions: 0.1%; for Pupil diameter (mm), test eye: n = 6
Experimental: Dog pupil diameter was measured using an optistick (a mm ruler which included half-circle references of standard widths (mm) for reference. Gently restraining the dog by hand, pupil diameter was determined by matching a half-circle to the pupil in normal room light. In dogs with very dark pupils a specialized penlight was used, but only very briefly to avoid pupil constriction. Pupil diameter was measured at the same time as IOP and hyperemia.

[2] = system: isolated chick ileum (EP3 receptor preparation); test: Isolated chick ileum contraction; conditions: compared to prostaglandin E2, 10^−6 M
Experimental: as §1
The chick ileum is an EP3 receptor preparation. Portions of the chick ileum of 1.5 cm length were suspended under 1 g of tension. After a one hour equilibration period, a standard dose-response curve for PGE2 was obtained in a non-cumulative fashion with 30 minute wash-out periods between individual doses. Subsequently, test compound was added non-cumulatively. A maximal dose of PGE2 (10^−6 M) was finally given to serve as a second reference standard. Contractile activity at each concentration was then calculated as a % of the maximal PGE2 response reached at a 10^−6 M concentration.

Chain of human FP receptor (P43088 whole entry): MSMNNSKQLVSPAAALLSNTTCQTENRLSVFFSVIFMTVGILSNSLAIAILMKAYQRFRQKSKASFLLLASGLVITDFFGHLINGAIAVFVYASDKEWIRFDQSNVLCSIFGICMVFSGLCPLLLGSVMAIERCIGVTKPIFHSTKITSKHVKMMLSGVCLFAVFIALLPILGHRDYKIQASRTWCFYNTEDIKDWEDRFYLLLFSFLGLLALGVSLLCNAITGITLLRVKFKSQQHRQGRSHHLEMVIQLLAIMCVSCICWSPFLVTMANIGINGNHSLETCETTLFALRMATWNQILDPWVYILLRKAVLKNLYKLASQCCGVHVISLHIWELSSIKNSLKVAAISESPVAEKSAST

Structure (SMILES): CCCCC[C@H](O)/C=C/[C@@H]1[C@@H](C/C=C\CCCC(=O)NCCO)[C@@H](O)C[C@H]1O [PGF2α 1-ethanolamide, (5Z,8α,9α,11α,13E,15S)-9,11,15-trihydroxy-N-(2-hydroxyethyL)prosta-5,13-dien-1-amide]
- % Maximal contractile response mean χ ± SEM ([1]; 10^−5 M): 126.0 ± 3.6%
- % Maximal contractile response mean χ ± SEM ([1]; 10^−6 M): 119.2 ± 6.0%
- % Maximal contractile response mean χ ± SEM ([1]; 10^−7 M): 77 ± 5.5%
- % Maximal contractile response mean χ ± SEM ([1]; 10^−8 M): 2.7 ± 1.7%
- EC50 ([1]; Felis catus, isolated feline iris sphincter, read-out: effective concentration (E.C.)50, contraction of cat iris sphincter smooth muscle): 58 nM
- threshold concentration ([1]; isolated feline iris sphincter contraction): ~10 nM
- % maximal total inositol phosphate accumulation mean χ ± SEM (human FP receptor; 10^−5 M): 85.0 ± 1.9%
- % maximal total inositol phosphate accumulation mean χ ± SEM (human FP receptor; 10^−6 M): 48.4 ± 3.3%
- % maximal total inositol phosphate accumulation mean χ ± SEM (human FP receptor; 10^−7 M): 10.0 ± 1.6%
- % maximal total inositol phosphate accumulation mean χ ± SEM (human FP receptor; 10^−8 M): 0.3 ± 0.6%
- EC50 (human FP receptor; HEK-293 cells, recombinant human FP receptor, read-out: E.C.50, total inositol phosphate accumulation): 1000 nM
- Pupil diameter (mm), test eye (dog pupil diameter; 0 HR (baseline)): 6.7 ± 0.2 mm
- Pupil diameter (mm), test eye (dog pupil diameter; 2 HR): 1.0 ± 0.4 mm
- Pupil diameter (mm), test eye (dog pupil diameter; 4 HR): 1.0 ± 0.3 mm
- Pupil diameter (mm), test eye (dog pupil diameter; 6 HR): 1.5 ± 0.4 mm
- Pupil diameter (mm), test eye (dog pupil diameter; 24 HR): 7.0 ± 0.3 mm
- miosis (dog pupil diameter; topical): marked miosis
- effect on the isolated chick ileum [2]: weak partial agonist

— patent US6395787B1, “Ocular hypotensive lipids” (Allergan Sales, Inc., priority 2000, dated 2002)
